# Measurements taken from US12655116B2, “Substituted isophthalic acid diamides” (Bayer Aktiengesellschaft, priority 2020, dated 2026).
# What was measured:
# AMARE [1] = test: Post-emergence herbicidal action against AMARE; type: in vivo, Amaranthus retroflexus; conditions: 20 g/ha, visual assessment about 3 weeks after treatment, 100% = plants have died, 0% = like control plants
# In short: (§1)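 Sandy loam, greenhouse; treatment 2–3 weeks after sowing, one-leaf stage. Aqueous suspension or emulsion from WP/EC sprayed on foliage (600–800 l/ha, 0.2% wetting agent). Readout: visual % action, ~3 weeks.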
# VERPE [2] = test: Post-emergence herbicidal action against VERPE; type: in vivo, Veronica persica
# In short: as §1
# ECHCG [3] = test: Post-emergence herbicidal action against ECHCG; type: in vivo, Echinochloa crus-galli
# In short: as §1
# VERPE [4] = test: Pre-emergence herbicidal action against VERPE; type: in vivo, Veronica persica; conditions: dosage 80 g/ha; for pest or weed control at 80 g/ha: Veronica persica, 504 h
# In short: (§2)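 Seeds sown in sandy loam, soil-covered; compound sprayed on soil surface pre-emergence. Application: WP/EC, 600–800 l/ha, 0.2% wetting agent. Readout: visual % damage at 3 weeks.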
# ALOMY [5] = test: Post-emergence herbicidal action against ALOMY; type: in vivo, Alopecurus myosuroides; conditions: dosage 20 g/ha, visual assessment about 3 weeks after treatment vs untreated controls
# In short: as §1
# ECHCG [6] = test: Pre-emergence herbicidal action against ECHCG; type: in vivo, Echinochloa crus-galli
# In short: as §2
# VIOTR [7] = test: Post-emergence herbicidal action against VIOTR; type: in vivo, Viola tricolor
# In short: as §1
# AMARE [8] = test: Pre-emergence herbicidal action against AMARE; type: in vivo, Amaranthus retroflexus; conditions: for pest or weed control at 20 g/ha / pest or weed control at 80 g/ha: Amaranthus retroflexus, 504 h
# In short: as §2
# PHBPU [9] = test: Pre-emergence herbicidal action against PHBPU; type: in vivo, Pharbitis purpurea
# In short: as §2
# ABUTH [10] = test: Pre-emergence herbicidal action against ABUTH; type: in vivo, Abutilon theophrasti
# In short: as §2
# ALOMY [11] = test: Pre-emergence herbicidal action against ALOMY; type: in vivo, Alopecurus myosuroides; conditions: 80 g/ha, pre-emergence, scored visually after 3 weeks vs untreated controls (100% = plants have died, 0% = like control plants)
# In short: as §2
# AVEFA = test: Pre-emergence herbicidal action against AVEFA; type: in vivo, Avena fatua
# In short: as §2
# SETVI [12] = test: Pre-emergence herbicidal action against SETVI; type: in vivo, Setaria viridis
# In short: as §2
# DIGSA [13] = test: Post-emergence herbicidal action against DIGSA; type: in vivo, Digitaria sanguinalis
# In short: as §1
# MATIN [14] = test: Post-emergence herbicidal action against MATIN; type: in vivo, Matricaria inodora
# In short: as §1
# MATIN [15] = test: Pre-emergence herbicidal action against MATIN; type: in vivo, Matricaria inodora
# In short: as §2
# VIOTR [16] = test: Pre-emergence herbicidal action against VIOTR; type: in vivo, Viola tricolor; conditions: for pest or weed control at 20 g/ha / pest or weed control at 80 g/ha: Viola tricolor, 504 h; for pest or weed control at 20 g/ha: dosage 20 g/ha
# In short: as §2
# PHBPU [17] = test: Post-emergence herbicidal action against PHBPU; type: in vivo, Pharbitis purpurea; conditions: dosage 20 g/ha
# In short: as §1
# ABUTH [18] = test: Post-emergence herbicidal action against ABUTH; type: in vivo, Abutilon theophrasti; conditions: visual assessment about 3 weeks after treatment vs untreated controls
# In short: as §1
# SETVI [19] = test: Post-emergence herbicidal action against SETVI; type: in vivo, Setaria viridis
# In short: as §1
# DIGSA [20] = test: Pre-emergence herbicidal action against DIGSA; type: in vivo, Digitaria sanguinalis
# In short: as §2
# POLCO = test: Pre-emergence herbicidal action against POLCO; type: in vivo, Polygonum convolvulus; conditions: Fallopia convolvulus, 504 h
# Description: Seeds of monocotyledonous and dicotyledonous weed plants and crop plants are laid out in sandy loam soil in wood-fiber pots and covered with soil. The compounds of the invention, formulated in the form of wettable powders (WP) or as emulsion concentrates (EC), are then applied to the surface of the covering soil in the form of an aqueous suspension or emulsion at a water application rate equivalent to 600 to 800 l/ha, with addition of 0.2% wetting agent. After the treatment, the pots are placed in a greenhouse and kept under good growth conditions for the trial plants. The damage to the test plants is scored visually after a test period of 3 weeks by comparison with untreated controls (herbicidal activity in percent (%): 100% activity=the plants have died, 0% activity=like control plants). […] The tables below illustrate, in an illustrative manner, the post-emergence herbicidal action of the compounds of the invention, the herbicidal activity being stated in percent.
# [21] = 20 g/ha, scored visually after 3 weeks vs untreated controls, 100% = plants have died, 0% = like control plants
# [22] = 80 g/ha, scored visually after 3 weeks vs untreated controls, 100% = plants have died, 0% = like control plants
# [23] = Abutilon theophrasti, 504 h, 80 g/ha, scored visually after 3 weeks vs untreated controls (100% = plants have died, 0% = like control plants)
# [24] = Setaria viridis, 504 h, dosage 20 g/ha
# [25] = Setaria viridis, 504 h, dosage 80 g/ha
# [26] = Tripleurospermum inodorum, 504 h, dosage 20 g/ha
# [27] = Abutilon theophrasti, 504 h, dosage 20 g/ha
# [28] = Digitaria sanguinalis, 504 h, dosage 80 g/ha
# [29] = 80 g/ha, scored visually after 3 weeks vs untreated controls (100% = plants have died, 0% = like control plants)
compound,measurement,setting,value
CCNC(=O)c1c(C(F)(F)F)ccc(C(=O)Nc2nnnn2C)c1OC [Example 1-57],pest or weed control at 20 g/ha,"AMARE [1]; Amaranthus retroflexus, 504 h",100%
same,pest or weed control at 5 g/ha,"VERPE [2]; Veronica persica, 504 h, 5 g/ha",80%
same,pest or weed control at 20 g/ha,"VERPE [2]; Veronica persica, 504 h, 20 g/ha",90%
same,pest or weed control at 5 g/ha,"ECHCG [3]; Echinochloa crus-galli, 504 h, dosage 5 g/ha",80%
same,pest or weed control at 20 g/ha,"ECHCG [3]; Echinochloa crus-galli, 504 h, dosage 20 g/ha",100%
same,pest or weed control at 80 g/ha,VERPE [4],80%
same,pest or weed control at 20 g/ha,"ALOMY [5]; Alopecurus myosuroides, 504 h",80%
same,pest or weed control at 20 g/ha,"ECHCG [6]; Echinochloa crus-galli, 504 h, 20 g/ha",90%
same,pest or weed control at 80 g/ha,"ECHCG [6]; Echinochloa crus-galli, 504 h, 80 g/ha",90%
same,pest or weed control at 5 g/ha,"VIOTR [7]; Viola tricolor, 504 h, 5 g/ha",100%
same,pest or weed control at 20 g/ha,"VIOTR [7]; Viola tricolor, 504 h, 20 g/ha",100%
same,pest or weed control at 20 g/ha,AMARE [8]; [21],100%
same,pest or weed control at 80 g/ha,AMARE [8]; [22],100%
same,pest or weed control at 20 g/ha,"PHBPU [9]; Ipomoea purpurea, 504 h, dosage 20 g/ha",80%
same,pest or weed control at 80 g/ha,"PHBPU [9]; Ipomoea purpurea, 504 h, dosage 80 g/ha",80%
same,pest or weed control at 80 g/ha,ABUTH [10]; [23],100%
same,pest or weed control at 20 g/ha,"ABUTH [10]; Abutilon theophrasti, 504 h, dosage 20 g/ha, scored visually after 3 weeks vs untreated controls, 100% = plants have died, 0% = like control plants, read-out: Pre-emergence action against ABUTH (herbicidal activity in percent)",100%
same,pest or weed control at 80 g/ha,"ALOMY [11]; Alopecurus myosuroides, 504 h",80%
same,pest or weed control at 80 g/ha,"AVEFA; Avena fatua, 504 h, 80 g/ha, pre-emergence",90%
same,pest or weed control at 20 g/ha,SETVI [12]; [24],90%
same,pest or weed control at 80 g/ha,SETVI [12]; [25],100%
same,pest or weed control at 5 g/ha,"DIGSA [13]; Digitaria sanguinalis, 504 h, 5 g/ha",100%
same,pest or weed control at 20 g/ha,"DIGSA [13]; Digitaria sanguinalis, 504 h, 20 g/ha",100%
same,pest or weed control at 5 g/ha,"MATIN [14]; Tripleurospermum inodorum, 504 h, dosage 5 g/ha",80%
same,pest or weed control at 20 g/ha,MATIN [14]; [26],90%
same,pest or weed control at 20 g/ha,MATIN [15]; [26],90%
same,pest or weed control at 80 g/ha,"MATIN [15]; Tripleurospermum inodorum, 504 h, dosage 80 g/ha",100%
same,pest or weed control at 20 g/ha,VIOTR [16],100%
same,pest or weed control at 80 g/ha,VIOTR [16]; dosage 80 g/ha,100%
same,pest or weed control at 20 g/ha,"PHBPU [17]; Ipomoea purpurea, 504 h",90%
same,pest or weed control at 5 g/ha,"ABUTH [18]; Abutilon theophrasti, 504 h, dosage 5 g/ha",90%
same,pest or weed control at 20 g/ha,ABUTH [18]; [27],90%
same,pest or weed control at 5 g/ha,"SETVI [19]; Setaria viridis, 504 h, dosage 5 g/ha",100%
same,pest or weed control at 20 g/ha,SETVI [19]; [24],100%
same,pest or weed control at 20 g/ha,"DIGSA [20]; Digitaria sanguinalis, 504 h, dosage 20 g/ha",100%
same,pest or weed control at 80 g/ha,DIGSA [20]; [28],100%
CC(NC(=O)c1c(C(F)(F)F)ccc(C(=O)Nc2nnnn2C)c1Cl)C1CC1 (stereo not shown) [Example 1-135],Post-emergence action at 20 g/ha against AMARE in %,AMARE [1],90%
same,Post-emergence action against VERPE in %,VERPE [2]; 5 g/ha,80%
same,Post-emergence action against VERPE in %,VERPE [2]; 20 g/ha,90%
same,Post-emergence action against ECHCG in %,ECHCG [3]; dosage 5 g/ha,80%
same,Post-emergence action against ECHCG in %,ECHCG [3]; dosage 20 g/ha,100%
same,Pre-emergence action against VERPE in %,VERPE [4],90%
same,Post-emergence action against ALOMY in %,ALOMY [5],90%
same,Pre-emergence action against ECHCG in %,ECHCG [6]; 20 g/ha,80%
same,Pre-emergence action against ECHCG in %,ECHCG [6]; 80 g/ha,100%
same,Post-emergence action against VIOTR in %,VIOTR [7]; 5 g/ha,80%
same,Post-emergence action against VIOTR in %,VIOTR [7]; 20 g/ha,90%
same,Pre-emergence action against AMARE in %,AMARE [8]; [21],100%
same,Pre-emergence action against AMARE in %,AMARE [8]; [29],100%
same,Pre-emergence action against PHBPU in %,PHBPU [9]; dosage 80 g/ha,80%
same,Pre-emergence action against ABUTH (herbicidal activity),ABUTH [10]; [29],100%
same,Pre-emergence action against ABUTH (herbicidal activity in percent),"ABUTH [10]; dosage 20 g/ha, scored visually after 3 weeks vs untreated controls, 100% = plants have died, 0% = like control plants",100%
same,Pre-emergence action against ALOMY (herbicidal activity),ALOMY [11],90%
same,Pre-emergence action against AVEFA,"AVEFA; 20 g/ha, scored visually after 3 weeks, 100% = plants have died, 0% = like control plants",80%
same,Pre-emergence action against AVEFA in %,"AVEFA; 80 g/ha, pre-emergence",100%
same,Pre-emergence action against SETVI in %,SETVI [12]; dosage 80 g/ha,100%
same,Post-emergence action against DIGSA,DIGSA [13]; 20 g/ha,90%
same,Post-emergence action against MATIN in %,MATIN [14]; dosage 5 g/ha,80%
same,Post-emergence action against MATIN in %,MATIN [14]; dosage 20 g/ha,90%
same,Pre-emergence action against MATIN in %,MATIN [15]; dosage 20 g/ha,90%
same,Pre-emergence action against MATIN in %,MATIN [15]; dosage 80 g/ha,100%
same,Pre-emergence action against VIOTR in %,VIOTR [16]; dosage 80 g/ha,100%
same,Post-emergence action against PHBPU in %,PHBPU [17],90%
same,Post-emergence action against ABUTH in %,ABUTH [18]; dosage 20 g/ha,80%
same,Post-emergence action against SETVI in %,SETVI [19]; dosage 20 g/ha,80%
same,Pre-emergence action against DIGSA in %,DIGSA [20]; dosage 20 g/ha,90%
same,Pre-emergence action against DIGSA in %,DIGSA [20]; dosage 80 g/ha,100%
CC(=O)NC(=O)c1c(C(F)(F)F)ccc(C(=O)Nc2nnnn2C)c1Cl [Example 1-337],pest or weed control at 80 g/ha,VERPE [4],90%
same,pest or weed control at 20 g/ha,POLCO; dosage 20 g/ha,80%
same,pest or weed control at 80 g/ha,POLCO; dosage 80 g/ha,80%
same,pest or weed control at 20 g/ha,"VIOTR [7]; Viola tricolor, 504 h, 20 g/ha",80%
same,pest or weed control at 20 g/ha,AMARE [8]; [21],90%
same,pest or weed control at 80 g/ha,AMARE [8]; [22],100%
same,pest or weed control at 80 g/ha,ABUTH [10]; [23],100%
same,pest or weed control at 80 g/ha,SETVI [12]; [25],90%
same,pest or weed control at 20 g/ha,VIOTR [16],80%
same,pest or weed control at 80 g/ha,VIOTR [16]; dosage 80 g/ha,80%
same,pest or weed control at 20 g/ha,ABUTH [18]; [27],80%
same,pest or weed control at 80 g/ha,DIGSA [20]; [28],100%
